Reference: patent publication US20170121315A1, “HETEROBICYCLICALLY SUBSTITUTED 4-OXOBUTANE ACID DERIVATIVES AND USE THEREOF” (priority 2014, published 2017)

Columns and labels:
Assay type in all cases: biochemical
MMP-1 = biological target: T1, MMP-1 (Homo sapiens, UniProt P03956); assay: In vitro MMP-1 inhibition test; conditions: human MMP-1
T1 construct: purchased R&D Systems 901-MP
T1 sequence (P03956 100-469): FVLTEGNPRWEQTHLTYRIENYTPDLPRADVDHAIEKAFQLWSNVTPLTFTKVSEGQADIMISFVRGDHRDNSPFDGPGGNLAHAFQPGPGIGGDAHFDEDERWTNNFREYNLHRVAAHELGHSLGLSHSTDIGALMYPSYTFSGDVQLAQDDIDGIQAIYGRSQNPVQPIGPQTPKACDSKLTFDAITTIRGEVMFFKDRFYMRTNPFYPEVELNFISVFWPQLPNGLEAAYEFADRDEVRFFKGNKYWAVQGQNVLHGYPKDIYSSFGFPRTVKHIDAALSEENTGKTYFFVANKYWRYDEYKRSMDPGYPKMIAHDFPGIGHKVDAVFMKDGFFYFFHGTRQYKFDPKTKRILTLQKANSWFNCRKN
Text: (§1) The MMP-mediated amidolytic cleavage of a suitable peptide substrate leads to an increase in fluorescent light here too. The signal intensity of the fluorescent light is directly proportional to the enzyme activity. The active concentration of a test compound at which half the enzyme is inhibited (50% signal intensity of the fluorescent light) is reported as the IC50 value.
(§2) Recombinant MMP-1 (R&D Systems, 901-MP) is chemically activated in accordance with the manufacturer's instructions using APMA. 1 μl of the test compound to be analysed (as a solution in DMSO, suitable concentrations e.g. 1 nM to 30 μM) is pipetted into 24 μl of activated enzyme (final concentration e.g. 2 nM) in reaction buffer (50 mM Tris/HCl pH 7.5, 10 mM CaCl2, 150 mM NaCl, 0.05% Brij®-35) in a white 384-hole microtiter plate (MTP). The enzymatic reaction is started by adding the intramolecularly quenched Mca-Pro-Leu-Gly-Leu-Dpa(Dnp)-Ala-Arg-NH2 substrate (final concentration e.g. 10 μM; R&D Systems, ES-001), so as to result in a total test volume of 50 μl. The course of the MMP-1 reaction is measured by measuring the fluorescence intensity (excitation 320 nm, emission 410 nm) over a suitable period of time (e.g. over 120 min at a temperature of 32° C.).

MMP-3 = biological target: T2, MMP-3 (Homo sapiens, UniProt P08254); assay: In vitro MMP-3 inhibition test; conditions: human MMP-3
T2 construct: purchased R&D Systems 513-MP
Text: as §1
as §2, with “MMP-3” for “MMP-1”, “513-MP)” for “901-MP)”, “Mca-Arg-Pro-Lys-Pro-Val-Glu-Nval-Trp-Arg-Lys(Dnp)-NH2” for “Mca-Pro-Leu-Gly-Leu-Dpa(Dnp)-Ala-Arg-NH2”, “ES-002),” for “ES-001),”

MMP-16 = biological target: T3, MMP-16 (Homo sapiens, UniProt P51512); assay: In vitro MMP-16 inhibition test; conditions: human MMP-16
T3 construct: purchased R&D Systems 1785-MP
Text: as §1
Recombinant MMP-16 (R&D Systems, 1785-MP) is enzymatically activated in accordance with the manufacturer's instructions using recombinant furin (R&D Systems, 1503-SE). 1 μl of the test compound to be analysed (as a solution in DMSO, suitable concentrations e.g. 1 nM to 30 μM) is pipetted into 24 μl of activated enzyme (final concentration e.g. 1 nM) in reaction buffer (50 mM Tris/HCl pH 7.5, 10 mM CaCl2, 150 mM NaCl, 0.05% Brij®-35) in a white 384-hole microtiter plate (MTP). The enzymatic reaction is started by adding the intramolecularly quenched Mca-Lys-Pro-Leu-Gly-Leu-Dpa(Dnp)-Ala-Arg-NH2 substrate (final concentration e.g. 5 μM; R&D Systems, ES-010), so as to result in a total test volume of 50 μl. The course of the MMP-16 reaction is measured by measuring the fluorescence intensity (excitation 320 nm, emission 410 nm) over a suitable period of time (e.g. over 120 min at a temperature of 32° C.).

MMP-13 = biological target: T4, MMP-13 (Homo sapiens, UniProt P45452); assay: In vitro MMP-13 inhibition test; conditions: human MMP-13
T4 construct: purchased R&D Systems 511-MP
Text: as §1
as §2, with “Recombinant MMP-13” for “Recombinant MMP-1”, “Systems, 511-MP)” for “Systems, 901-MP)”, “e.g. 0.1” for “e.g. 2”, “the MMP-13” for “the MMP-1”

T3 sequence (P51512 120-564 limits assumed): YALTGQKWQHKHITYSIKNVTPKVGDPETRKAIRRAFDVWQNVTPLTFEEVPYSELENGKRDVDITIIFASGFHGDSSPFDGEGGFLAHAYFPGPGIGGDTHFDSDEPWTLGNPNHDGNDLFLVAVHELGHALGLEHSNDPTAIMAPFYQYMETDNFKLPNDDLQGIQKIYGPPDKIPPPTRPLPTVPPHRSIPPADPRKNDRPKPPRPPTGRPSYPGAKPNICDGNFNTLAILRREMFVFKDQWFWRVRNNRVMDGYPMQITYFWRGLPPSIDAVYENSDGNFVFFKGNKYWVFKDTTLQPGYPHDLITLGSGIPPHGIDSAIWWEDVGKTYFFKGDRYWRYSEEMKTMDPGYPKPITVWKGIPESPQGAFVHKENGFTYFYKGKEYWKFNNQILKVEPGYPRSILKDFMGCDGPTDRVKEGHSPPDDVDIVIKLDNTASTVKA
T2 sequence (P08254 100-477): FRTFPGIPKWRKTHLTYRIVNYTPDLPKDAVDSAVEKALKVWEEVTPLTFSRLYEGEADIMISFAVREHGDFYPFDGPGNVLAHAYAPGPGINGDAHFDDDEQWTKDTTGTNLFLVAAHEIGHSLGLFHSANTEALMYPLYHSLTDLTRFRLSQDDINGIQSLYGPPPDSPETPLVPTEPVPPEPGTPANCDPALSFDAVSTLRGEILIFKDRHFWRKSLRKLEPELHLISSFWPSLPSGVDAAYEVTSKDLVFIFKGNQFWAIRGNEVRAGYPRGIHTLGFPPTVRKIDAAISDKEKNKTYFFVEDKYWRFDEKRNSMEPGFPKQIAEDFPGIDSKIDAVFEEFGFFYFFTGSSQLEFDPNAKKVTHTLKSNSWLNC

IC50 (MMP-1) [µM]	IC50 (MMP-3) [µM]	IC50 (MMP-16) [µM]	IC50 (MMP-13) [µM]	Structure (SMILES)
> 40	13	38	2.2	O=C(CC(CCn1nnc2ccccc2c1=O)C(=O)O)c1onc2cc(OCc3ccccc3)ccc12 (racemic) [Example 156, (+/−)-4-[6-(Benzyloxy)-2,1-benzoxazol-3-yl]-4-oxo-2-[2-(4-oxo-1,2,3-benzotriazin-3(4H)-yl)ethyl]butanoic acid]
> 40	1.1	4.9	0.29	O=C(O)[C@H]1[C@H](Cn2nnc3ccc(C(F)(F)F)cc3c2=O)CC[C@@H]1C(=O)c1cc2cc(OCCc3ccccc3)ccc2o1 (racemic) [Example 157, (+/−)-(1RS,2SR,5RS)-2-{[4-Oxo-6-(trifluoromethyl)-1,2,3-benzotriazin-3(4H)-yl]methyl}-5-{[5-(2-phenylethoxy)-1-benzofur-2-yl]carbonyl}cyclopentanecarboxylic acid (racemate)]
> 40	17	13	0.37	CCCCCOc1ccc2c(C(=O)CC(CCn3nnc4ccccc4c3=O)C(=O)O)coc2c1 (single isomer, unassigned) [Example 91, 4-Oxo-2-[2-(4-oxo-1,2,3-benzotriazin-3(4H)-yl)ethyl]-4-[6-(pentyloxy)-1-benzofur-3-yl]butanoic acid]
> 40	22	> 40	1.8	O=C(CC(CCn1nnc2ccccc2c1=O)C(=O)O)c1cc2cc(OCCc3ccccc3)ccc2o1 (single isomer, unassigned; (+)) [Example 21, (+)-4-Oxo-2-[2-(4-oxo-1,2,3-benzotriazin-3(4H)-yl)ethyl]-4-[5-(2-phenylethoxy)-1-benzofur-2-yl]butanoic acid]
> 40	> 40	30	5.3	O=C(CC(CCn1nnc2ccccc2c1=O)C(=O)O)c1cc2cc(OCc3ccc(F)cc3)ccc2o1 (single isomer, unassigned; (+)) [Example 23, (+)-4-{5-[(4-Fluorobenzyl)oxy]-1-benzofur-2-yl}-4-oxo-2-[2-(4-oxo-1,2,3-benzotriazin-3(4H)-yl)ethyl]butanoic acid]
> 40	> 40	> 40	10	O=C(CC(CCn1nnc2ccccc2c1=O)C(=O)O)c1cc2cc(OCc3ccccc3)ccc2o1 (single isomer, unassigned; (+)) [Example 30, (+)-4-[5-(Benzyloxy)-1-benzofur-2-yl]-4-oxo-2-[2-(4-oxo-1,2,3-benzotriazin-3(4H)-yl)ethyl]butanoic acid]
> 40	34	> 40	1.6	NC(=O)c1cccc(COc2ccc3oc(C(=O)CC(CCn4nnc5ccccc5c4=O)C(=O)O)cc3c2)c1 (single isomer, unassigned; (+)) [Example 34, (+)-4-{5-[(3-Carbamoylbenzyl)oxy]-1-benzofur-2-yl}-4-oxo-2-[2-(4-oxo-1,2,3-benzotriazin-3(4H)-yl)ethyl]butanoic acid]
> 40	36	> 40	3.6	CCCCCCCOc1ccc2cc(C(=O)CC(CCn3nnc4ccccc4c3=O)C(=O)O)oc2c1 (single isomer, unassigned; (+)) [Example 69, (+)-4-[6-(Heptyloxy)-1-benzofur-2-yl]-4-oxo-2-[2-(4-oxo-1,2,3-benzotriazin-3(4H)-yl)ethyl]butanoic acid acid]
> 40	5.7	21	3.6	O=C(CC(CCn1nnc2ccccc2c1=O)C(=O)O)c1coc2cc(OCC3CCCC3)ccc12 (single isomer, unassigned; (+)) [Example 80, (+)-4-[6-(Cyclopentylmethoxy)-1-benzofur-3-yl]-4-oxo-2-[2-(4-oxo-1,2,3-benzotriazin-3(4H)-yl)ethyl]butanoic acid]
> 40	16	> 40	1.3	O=C(CC(CCn1nnc2ccccc2c1=O)C(=O)O)c1coc2cc(OCC3CCCCC3)ccc12 (single isomer, unassigned; (+)) [Example 82, (+)-4-[6-(Cyclohexylmethoxy)-1-benzofur-3-yl]-4-oxo-2-[2-(4-oxo-1,2,3-benzotriazin-3(4H)-yl)ethyl]butanoic acid]
> 40	> 40	> 40	0.14	CCCCCCOc1ccc2c(C(=O)CC(CCn3nnc4ccccc4c3=O)C(=O)O)coc2c1 (single isomer, unassigned; (+)) [Example 100, (+)-4-[6-(Hexyloxy)-1-benzofur-3-yl]-4-oxo-2-[2-(4-oxo-1,2,3-benzotriazin-3(4H)-yl)ethyl]butanoic acid]
> 40	6.4	37	1.3	O=C(CC(CCn1nnc2ccccc2c1=O)C(=O)O)c1cc2ccc(OCC3CC3)cc2s1 (single isomer, unassigned; (+)) [Example 112, (+)-4-[6-(Cyclopropylmethoxy)-1-benzothiophen-2-yl]-4-oxo-2-[2-(4-oxo-1,2,3-benzotriazin-3(4H)-yl)ethyl]butanoic acid]
> 40	12	36	1.5	O=C(C[C@H](CCn1nnc2ccccc2c1=O)C(=O)O)c1noc2cc(OCC3CCOCC3)ccc12 (single isomer, unassigned; enantiomer 2) [Example 135]

Structure (SMILES)	IC50 (MMP-1) [µM]	IC50 (MMP-3) [µM]	IC50 (MMP-16) [µM]	IC50 (MMP-13) [µM]
O=C(CC(CCn1nnc2ccccc2c1=O)C(=O)O)c1cc2cc(OCCCC(F)(F)F)ccc2o1 (single isomer, unassigned; enantiomer 2) [Example 13, (+)-4-Oxo-2-[2-(4-oxo-1,2,3-benzotriazin-3(4H)-yl)ethyl]-4-[5-(4,4,4-trifluorobutoxy)-1-benzofur-2-yl]butanoic acid (enantiomer 2)]	> 40	> 40	> 40	4.6
